In patent US20010047099A1, “4-aminopicolinates and their use as herbicides” (priority 2000, published 2001):

Assays:
Type in all cases: in vivo
[1] = system: yellow nutsedge (Cyperus esculentus); experiment: Postemergence herbicidal activity; settings: Table 3; weeds in rice; rate 250 ppm
Method in brief: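 Spray rate conversion: 1 ppm ≈ 1 g/Ha. The test used greenhouse seedlings (first/second true leaf) treated with a serially diluted compound spray. Control plants received carrier only. Efficacy was taken as visual injury at 2 weeks on a 0–100% scale.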

rice (Oryza sativa) = experiment: Postemergence herbicidal activity, selectivity to rice; settings: Table 3; crop (rice); rate 250 ppm
Experimental: (§1) Seeds of the desired test plant species were planted in Grace-Sierra MetroMix® 306 planting mixture, which typically has a pH of 6.0 to 6.8 and an organic matter content of about 30 percent, in plastic pots with a surface area of 64 square centimeters. When required to ensure good germination and healthy plants, a fungicide treatment and/or other chemical or physical treatment was applied. The plants were grown for 7-21 days in a greenhouse with an approximate 15 hr photoperiod which was maintained at about 23-29° C. during the day and 22-28° C. during the night. Nutrients and water were added on a regular basis and supplemental lighting was provided with overhead metal halide 1000-Watt lamps as necessary. The plants were employed for testing when they reached the first or second true leaf stage.
A weighed amount, determined by the highest rate to be tested, of each test compound was placed in a 20 mL glass vial and was dissolved in 4 mL of a 97:3 v/v (volume/volume) mixture of acetone and dimethyl sulfoxide (DMSO) to obtain concentrated stock solutions. […] The concentrated stock solutions obtained were diluted with an aqueous mixture containing acetone, water, isopropyl alcohol, DMSO, Atplus 411F crop oil concentrate, and Triton X-155 surfactant in a 48.5:39:10:1.5:1.0:0.02 v/v ratio to obtain spray solutions of known concentration. The solutions containing the highest concentration to be tested were prepared by diluting 2 mL aliquots of the stock solution with 13 mL of the mixture and lower concentrations were prepared by serial dilution of the stock solution. […]
(§2) The treated plants and control plants were placed in a greenhouse as described above and watered by sub-irrigation to prevent wash-off of the test compounds. After 2 weeks the condition of the test plants as compared with that of the untreated plants was determined visually and scored on a scale of 0 to 100 percent where 0 corresponds to no injury and 100 corresponds to complete kill.

[2] = system: sicklepod (Cassia obtusifolia); experiment: Range & Pasture Crop Testing (postemergence track sprayer); settings: Table 8; salts of Compound 1; dose for 80 percent control
Method in brief: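 Postemergence track-sprayer application at 187 L/ha, compounds formulated in 97:3 acetone:DMSO with 0.25% X-77, five rates (X serially diluted to 1/16×). Visual percent control (0–100 scale, burn down) rated 3 weeks after treatment; GR50/GR80 derived by probit analysis.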

[3] = system: crested wheatgrass (Agropyron cristatum) (grass crop); experiment: as above; settings: Table 9, rate 70 g/Ha, 3 weeks after treatment
Experimental: (§3) Rates are calculated based upon 5 doses being applied. The high rate (X), followed by serial dilutions of 1/2×, 1/4×, 1/8× and 1/16×. Compound requirements are based upon the 187 L/ha carrier volume, specifications of the delivery system (Mandel track sprayer) and generating 24 mL of technical spray material to allow for the dilutions and overage in the sprayer. [formula]
(§4) All technical materials were formulated in 97:3 (acetone:DMSO) with 0.25% X-77. The total volume of solvent is maintained at less than 7%. An overhead Mandel track sprayer calibrated to deliver 187 L/ha was used for all treatment applications (postemergence). Picloram was included as a comparison treatment.
(§5) Solutions were applied with a mechanized track-sprayer at the following settings:
(§6) Spray height: 17 inches above top of plants
(§7) This provides an application volume of 187 L/ha.
(§8) Percent weed control (burn down) was evaluated 3 weeks after treatment. Visual control on a 0-100 linear scale was used, with 0 representing no control and 100 representing total control. Burn down ratings were taken for annual and perennial weed species.

[4] = system: broadleaf dock (Rumex obtusifolia); experiment: as above; settings: Table 9; rate 70 g/Ha; 3 weeks after treatment
Experimental: as §3, §4, §5, §6, §7, §8

[5] = system: common ragweed (Ambrosia artemisiifolia); experiment: as above; settings: Table 9; rate 70 g/Ha; 3 week evaluation
Experimental: as §3, §4, §5, §6, §7, §8

[6] = system: wheat (Triticum aestivum); experiment: Postemergence herbicidal activity, selectivity to wheat; settings: Table 5; crop (wheat); rate 250 ppm
Experimental: as §1
A weighed amount, determined by the highest rate to be tested, of each test compound was placed in a 20 mL glass vial and was dissolved in 4 mL of a 97:3 v/v (volume/volume) mixture of acetone and dimethyl sulfoxide (DMSO) to obtain concentrated stock solutions. […] The concentrated stock solutions obtained were diluted with an aqueous mixture containing acetone, water, isopropyl alcohol, DMSO, Atplus 411F crop oil concentrate, and Triton X-155 surfactant in a 48.5:39:10:1.5:1.0:0.02 v/v ratio to obtain spray solutions of known concentration. The solutions containing the highest concentration to be tested were prepared by diluting 2 mL aliquots of the stock solution with 13 mL of the mixture and lower concentrations were prepared by serial dilution of the stock solution. Approximately 1.5 mL aliquots of each solution of known concentration were sprayed evenly onto each of the test plant pots using a DeVilbiss atomizer driven by compressed air pressure of 2 to 4 psi ([…]) to obtain thorough coverage of each plant. Control plants were sprayed in the same manner with the aqueous mixture. In this test an application rate of 1 ppm results in the application of approximately 1 g/Ha.
as §2

Row | Structure (SMILES) | post emergent evaluation - % control CYPES [1] [%] | post emergent evaluation - % control ORYZA (rice (Oryza sativa)) [%] | Post-emergent GR80 CASOB [2] [g/Ha] | Post-emergent Evaluation - % control AGRCR [3] [%] | Post-emergent Evaluation - % control RUMOB [4] [%] | Post-emergent Evaluation - % control AMBEL [5] [%] | Post-emergent Evaluation - % control TRZAS [6] [%]
1 | Nc1cc(Cl)nc(C(=O)O)c1Cl [Compound 1, 4-Amino-3,6-dichloropyridine-2-carboxylic acid] | 75 | 10 | 11 | – | – | – | –
2 | COC(=O)c1nc(Cl)cc(N)c1Cl [Compound 3, methyl 4-amino-3,6-dichloropyridine-2-carboxylate] | – | – | – | 30 | 100 | 100 | –
3 | Nc1cc(Br)nc(C(=O)O)c1Cl [Compound 14, 4-Amino-6-bromo-3-chloropyridine-2-carboxylic acid] | 75 | 10 | – | – | – | – | 0
